Measurements published in PubChem BioAssay AID1845210 (Molecular Pharmacology Branch, DTP, NCI, 2023).

Tested on: NCI-H226 complex tumor spheroids, viability
Assay: Anticancer human tumor NCI-H226 cell line growth inhibition;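 note: spheroids exposed to compound for 7 days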;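 for viability, T/C: 100% = DMSO vehicle control viability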
Settings: for IC50: curve of first compound; for viability, T/C: stronger effect = lower value
Method in brief: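 Complex tumor spheroids combined malignant cells with endothelial cells and mesenchymal stem cells. DNA-damaging drugs and DNA repair inhibitors were tested alone and in combination, at half-log dilutions down from clinical Cmax (top 10 microM if Cmax unknown), 0.25% DMSO final.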

[1] = second compound 30 pM, first compound 0.00949 µM
[2] = second compound 30 pM, first compound 0.03 µM
[3] = second compound 30 pM, first compound 0.0949 µM
[4] = second compound 30 pM, first compound 0.3 µM
[5] = second compound 30 pM, first compound 0.949 µM
[6] = second compound 30 pM, first compound 3 µM
[7] = second compound 94.9 pM, first compound 0.00949 µM
[8] = second compound 94.9 pM, first compound 0.03 µM
[9] = second compound 94.9 pM, first compound 0.0949 µM
[10] = second compound 94.9 pM, first compound 0.3 µM
[11] = second compound 94.9 pM, first compound 0.949 µM
[12] = second compound 94.9 pM, first compound 3 µM
[13] = second compound 0.0003 µM, first compound 0.00949 µM
[14] = second compound 0.0003 µM, first compound 0.03 µM
[15] = second compound 0.0003 µM, first compound 0.0949 µM
[16] = second compound 0.0003 µM, first compound 0.3 µM
[17] = second compound 0.0003 µM, first compound 0.949 µM
[18] = second compound 0.0003 µM, first compound 3 µM
[19] = second compound 0.000949 µM, first compound 0.00949 µM
[20] = second compound 0.000949 µM, first compound 0.03 µM
[21] = second compound 0.000949 µM, first compound 0.0949 µM
[22] = second compound 0.000949 µM, first compound 0.3 µM
[23] = second compound 0.000949 µM, first compound 0.949 µM
[24] = second compound 0.000949 µM, first compound 3 µM
[25] = second compound 0.003 µM, first compound 0.00949 µM
[26] = second compound 0.003 µM, first compound 0.03 µM
[27] = second compound 0.003 µM, first compound 0.0949 µM
[28] = second compound 0.003 µM, first compound 0.3 µM
[29] = second compound 0.003 µM, first compound 0.949 µM
[30] = second compound 0.003 µM, first compound 3 µM
[31] = second compound 30 pM, first compound 0.0316 µM
[32] = second compound 30 pM, first compound 0.1 µM
[33] = second compound 30 pM, first compound 0.316 µM
[34] = second compound 30 pM, first compound 1 µM
[35] = second compound 30 pM, first compound 3.16 µM
[36] = second compound 30 pM, first compound 10 µM
[37] = second compound 94.9 pM, first compound 0.0316 µM
[38] = second compound 94.9 pM, first compound 0.1 µM
[39] = second compound 94.9 pM, first compound 0.316 µM
[40] = second compound 94.9 pM, first compound 1 µM
[41] = second compound 94.9 pM, first compound 3.16 µM
[42] = second compound 94.9 pM, first compound 10 µM
[43] = second compound 0.0003 µM, first compound 0.0316 µM
[44] = second compound 0.0003 µM, first compound 0.1 µM
[45] = second compound 0.0003 µM, first compound 0.316 µM
[46] = second compound 0.0003 µM, first compound 1 µM
[47] = second compound 0.0003 µM, first compound 3.16 µM
[48] = second compound 0.0003 µM, first compound 10 µM
[49] = second compound 0.000949 µM, first compound 0.0316 µM
[50] = second compound 0.000949 µM, first compound 0.1 µM
[51] = second compound 0.000949 µM, first compound 0.316 µM
[52] = second compound 0.000949 µM, first compound 1 µM
[53] = second compound 0.000949 µM, first compound 3.16 µM
[54] = second compound 0.000949 µM, first compound 10 µM
[55] = second compound 0.003 µM, first compound 0.0316 µM
[56] = second compound 0.003 µM, first compound 0.1 µM
[57] = second compound 0.003 µM, first compound 0.316 µM
[58] = second compound 0.003 µM, first compound 1 µM
[59] = second compound 0.003 µM, first compound 3.16 µM
[60] = second compound 0.003 µM, first compound 10 µM

CNCc1ccc(-c2cc(-c3nc(-c4ccc(S(=O)(=O)C(C)C)cc4)cnc3N)on2)cc1 + COc1cc2c(cc1O)CCNC21CSC2c3c(OC(C)=O)c(C)c4c(c3C(COC1=O)N1C(O)C3Cc5cc(C)c(OC)c(O)c5C(C21)N3C)OCO4
IC50 (second compound 30 pM): 1610 nM
IC50 (second compound 94.9 pM): 1480 nM
IC50 (second compound 0.0003 µM): 1500 nM
IC50 (second compound 0.000949 µM): 1020 nM
IC50 (second compound 0.003 µM): < 9.49 nM
viability, T/C [1]: 89.5%
viability, T/C [2]: 96.1%
viability, T/C [3]: 103%
viability, T/C [4]: 123%
viability, T/C [5]: 91.9%
viability, T/C [6]: 0.9%
viability, T/C [7]: 85.9%
viability, T/C [8]: 99.4%
viability, T/C [9]: 105%
viability, T/C [10]: 127%
viability, T/C [11]: 80.9%
viability, T/C [12]: 0.45%
viability, T/C [13]: 89.7%
viability, T/C [14]: 105%
viability, T/C [15]: 106%
viability, T/C [16]: 138%
viability, T/C [17]: 82.9%
viability, T/C [18]: 0.44%
viability, T/C [19]: 88.1%
viability, T/C [20]: 94.1%
viability, T/C [21]: 124%
viability, T/C [22]: 91.4%
viability, T/C [23]: 53.9%
viability, T/C [24]: 0.33%
viability, T/C [25]: 2.12%
viability, T/C [26]: 1.88%
viability, T/C [27]: 3%
viability, T/C [28]: 1.46%
viability, T/C [29]: 0.37%
viability, T/C [30]: 0.31%

Cc1cc(C)c(CNC(=O)c2cc(-c3ccc(CN4CCOCC4)cc3)cc3c2cnn3C2CCCC2)c(=O)[nH]1 + COc1cc2c(cc1O)CCNC21CSC2c3c(OC(C)=O)c(C)c4c(c3C(COC1=O)N1C(O)C3Cc5cc(C)c(OC)c(O)c5C(C21)N3C)OCO4
IC50 (second compound 30 pM): > 10000 nM
IC50 (second compound 94.9 pM): > 10000 nM
IC50 (second compound 0.0003 µM): > 10000 nM
IC50 (second compound 0.000949 µM): > 10000 nM
IC50 (second compound 0.003 µM): < 31.6 nM
viability, T/C [31]: 87.5%
viability, T/C [32]: 106%
viability, T/C [33]: 96.8%
viability, T/C [34]: 93.8%
viability, T/C [35]: 86.7%
viability, T/C [36]: 95.8%
viability, T/C [37]: 98.3%
viability, T/C [38]: 100%
viability, T/C [39]: 101%
viability, T/C [40]: 96.6%
viability, T/C [41]: 83.1%
viability, T/C [42]: 91.8%
viability, T/C [43]: 105%
viability, T/C [44]: 115%
viability, T/C [45]: 109%
viability, T/C [46]: 110%
viability, T/C [47]: 110%
viability, T/C [48]: 93.3%
viability, T/C [49]: 108%
viability, T/C [50]: 104%
viability, T/C [51]: 113%
viability, T/C [52]: 103%
viability, T/C [53]: 92.3%
viability, T/C [54]: 97.8%
viability, T/C [55]: 3.24%
viability, T/C [56]: 1.05%
viability, T/C [57]: 2.46%
viability, T/C [58]: 0.49%
viability, T/C [59]: 0.37%
viability, T/C [60]: 0.44%

Cc1sc2c(c1C)C(c1ccc(Cl)cc1)=NC(CC(=O)Nc1ccc(O)cc1)c1nnc(C)n1-2 (stereo not given) + COc1cc2c(cc1O)CCNC21CSC2c3c(OC(C)=O)c(C)c4c(c3C(COC1=O)N1C(O)C3Cc5cc(C)c(OC)c(O)c5C(C21)N3C)OCO4
IC50 (second compound 30 pM): > 3000 nM
IC50 (second compound 94.9 pM): > 3000 nM
IC50 (second compound 0.0003 µM): > 3000 nM
IC50 (second compound 0.000949 µM): 257 nM
IC50 (second compound 0.003 µM): < 9.49 nM
viability, T/C [1]: 97%
viability, T/C [2]: 93.1%
viability, T/C [3]: 84%
viability, T/C [4]: 84.9%
viability, T/C [5]: 68%
viability, T/C [6]: 64.8%
viability, T/C [7]: 105%
viability, T/C [8]: 91.8%
viability, T/C [9]: 87.1%
viability, T/C [10]: 77.6%
viability, T/C [11]: 73.9%
viability, T/C [12]: 66%
viability, T/C [13]: 101%
viability, T/C [14]: 84.7%
viability, T/C [15]: 75.2%
viability, T/C [16]: 75.9%
viability, T/C [17]: 72.6%
viability, T/C [18]: 48.7%
viability, T/C [19]: 138%
viability, T/C [20]: 78.6%
viability, T/C [21]: 68.2%
viability, T/C [22]: 67.1%
viability, T/C [23]: 19.7%
viability, T/C [24]: 7.53%
viability, T/C [25]: 2.09%
viability, T/C [26]: 0.99%
viability, T/C [27]: 0.74%
viability, T/C [28]: 0.28%
viability, T/C [29]: 0.28%
viability, T/C [30]: 0.51%

[2H]c1nc(C)nc([2H])c1-c1cc(NC[C@@H](C)c2cccc3c(C(=O)NC)ccnc23)ncn1 + COc1cc2c(cc1O)CCNC21CSC2c3c(OC(C)=O)c(C)c4c(c3C(COC1=O)N1C(O)C3Cc5cc(C)c(OC)c(O)c5C(C21)N3C)OCO4
IC50 (second compound 30 pM): > 10000 nM
IC50 (second compound 94.9 pM): > 10000 nM
IC50 (second compound 0.0003 µM): > 10000 nM
IC50 (second compound 0.000949 µM): > 10000 nM
IC50 (second compound 0.003 µM): < 31.6 nM
viability, T/C [31]: 99.6%
viability, T/C [32]: 101%
viability, T/C [33]: 93%
viability, T/C [34]: 106%
viability, T/C [35]: 111%
viability, T/C [36]: 101%
viability, T/C [37]: 99.1%
viability, T/C [38]: 101%
viability, T/C [39]: 100%
viability, T/C [40]: 101%
viability, T/C [41]: 103%
viability, T/C [42]: 103%
viability, T/C [43]: 105%
viability, T/C [44]: 110%
viability, T/C [45]: 115%
viability, T/C [46]: 118%
viability, T/C [47]: 98.7%
viability, T/C [48]: 118%
viability, T/C [49]: 105%
viability, T/C [50]: 114%
viability, T/C [51]: 102%
viability, T/C [52]: 112%
viability, T/C [53]: 101%
viability, T/C [54]: 105%
viability, T/C [55]: 3.26%
viability, T/C [56]: 3.28%
viability, T/C [57]: 1.57%
viability, T/C [58]: 2.56%
viability, T/C [59]: 1.3%
viability, T/C [60]: 0.8%
